Values after ≈ are worked out from the molar mass of the structure shown. “Also recorded” adds a separate entry of the source. Where two headings read alike, the source gives them in different places.
Tests used:
[1] = tested on: Caco-2 cells; experiment: Resazurin cell viability assay (cytotoxicity); assay type: cell-based, human; details: read-out: IC50
Method: (§1) Cytotoxicity of each compound alone or in combination with different polymyxin concentrations was evaluated through the resazurin cell viability assay[49] in human embryonic HEK-293T cells, as well as in human colon adenocarcinoma Caco-2 cells, after a 72-h long incubation period.
(§2) HEK-293T and Caco-2 cells were grown in RPMI 1640 medium (VWR) supplemented with 10% FBS (Biowest), 1% PenStrep (Sigma Aldrich), and 1% glutamine (Biowest) in a humidified incubator at 37 °C with a 5% CO2 atmosphere. Twice a week, the medium was aspirated, the cells were washed with DPBS (VWR), trypsinized with trypsin–EDTA solution (Biowest), and resuspended in fresh culture medium. The dose-dependent effects of each glycoside or glycoside-polymyxin combination were evaluated by the resazurin cell viability assay. Polymyxins (colistin sulfate and PMB sulfate for microbiological assays, European Pharmacopoeia Reference Standards, Sigma-Aldrich) were firstly dissolved in sterilized Mili-Q water to a stock concentration of 1 mg/mL, while glycosides were dissolved in DMSO to a stock concentration of 30 mM. 1.5 × 10^4 cells/well in 96.5 µL of medium were seeded onto 96-well plates and incubated at 37 °C for 24 h. For each compound, ten stock dilutions (with concentrations from 750 to 75 µM) were prepared in fresh medium immediately prior to incubation. 16 µL of each dilution were added to each well so that the final glycoside concentrations ranged from 100 to 10 µM in each row in a final assay volume of 120 µL. In addition, the previously prepared polymyxin stock solutions were diluted in fresh medium, affording new stocks of 8, 4, and 2 µg/mL. The same volume (7.5 µL/well) of PMB or colistin was then added to each row to achieve a final polymyxin concentration of 0.5, 0.25, and 0.125 µg/mL, respectively, regardless of the glycoside concentration. In assays without polymyxin, the same volume (7.5 µL/well) of medium was added. In all assays, the maximum DMSO concentration was 0.33%. After a 72-h incubation at 37 °C, 12 µL of a 0.15 mg/mL resazurin (Sigma-Aldrich) in sterilized Mili-Q water were added to each well, and the plates were left incubating for another 4 h at 37 °C. Resorufin was measured at 570/600 nm, and the percentage of resazurin reduction, corresponding to the cell viability percentage, was calculated according to Eq. (1)[60]. IC50 values were obtained by best fitting the dose-dependent inhibition curves using the Prism 9® software. The results were expressed as the mean ± SD of three independent replicates, with only data from analysis with R^2 > 0.90 being considered.1 %Cellviability=Abssample-Absmediumcontrol/Abscellcontrol-Absmediumcontrol×100

[2] = tested on: HEK-293T cells; experiment: Resazurin cell viability assay (cytotoxicity); assay type: cell-based, human; details: 72 h, read-out: IC50
Method: as §1, §2

[3] = PE vs phosphatidylcholine (PC); cited from earlier work
[4] = tested on: E. coli K12; details: cited from earlier work
[5] = tested on: E. coli K12 spheroplasts; details: only the IM left intact; cited from earlier work
[6] = tested on: B. cereus ATCC 14579; details: cited from earlier work
[7] = Homo sapiens, Caco-2, 72 h, Colistin 0.5 μg/mL
[8] = Homo sapiens, Caco-2, 72 h, No polymyxin
[9] = Homo sapiens, Caco-2, 72 h, tested alone (no polymyxin adjuvant)
[10] = Homo sapiens, HEK-293T, Colistin 0.5 μg/mL
[11] = Homo sapiens, HEK-293T, No polymyxin
[12] = Homo sapiens, HEK-293T, PMB 0.5 μg/mL
[13] = Homo sapiens, HEK-293T, tested alone (no polymyxin adjuvant)
[14] = Homo sapiens, Caco-2, 72 h, Colistin 0.25 μg/mL
[15] = Homo sapiens, Caco-2, 72 h, PMB 0.25 μg/mL
[16] = Homo sapiens, HEK-293T, Colistin 0.25 μg/mL
[17] = Homo sapiens, HEK-293T, PMB 0.125 μg/mL
[18] = Homo sapiens, HEK-293T, PMB 0.25 μg/mL
[19] = Homo sapiens, Caco-2, 72 h, PMB 0.5 μg/mL

| Compound | IC50 [1, 7] [µM] | IC50 [1, 8] [µM] | IC50 [1, 9] [µg/mL] | IC50 [2, 10] [µM] | IC50 [2, 11] [µM] | IC50 [2, 12] [µM] | IC50 [2, 13] [µg/mL] | interaction with phosphatidylethanolamine (PE) [3] | IC50 [1, 14] [µM] | IC50 [1, 15] [µM] | IC50 [2, 16] [µM] | IC50 [2, 17] [µM] | IC50 [2, 18] [µM] | IC50 ([2]; No polymyxin) [µM] | IC50 [1, 19] [µM] | other results |
| --- | --- | --- | --- | --- | --- | --- | --- | --- | --- | --- | --- | --- | --- | --- | --- | --- |
| CCCCCCCCCCCCO[C@@H]1C[C@@H](O)[C@H](O)[C@@H](CO)O1 [Compound 4, dodecyl 2-deoxy-α-D-arabino-hexopyranoside] | > 100 | > 100 | > 33 | > 100 | > 100 | > 100 | > 33 | Non PE-binder; also recorded: limited affinity towards PE |  |  |  |  |  |  |  |  |
| CCCCCCCCCCCC[C@H]1O[C@H](C)C[C@H](O)[C@H]1O [Compound 5, 1-(4,6-dideoxy-α-D-xylo-hexopyranosyl)dodecane] | 64.1 ± 1.09 | 62.4 ± 1.22 | 18.7 | 80 ± 1.69 | 79.74 ± 0.53 | 83.2 ± 0.96 | 24 |  | 64.9 ± 0.98 | 61.1 ± 1.06 | 78.6 ± 3.28 | 79.2 ± 2 | 79.4 ± 1.58 | 79.7 |  | IC50 ([2]; Homo sapiens, HEK-293T, Colistin 0.125 μg/mL): 79.7 ± 1.05 µM |
| CCCCCCCCCCCCO[C@@H]1O[C@H](C)C[C@H](O)[C@H]1O [Compound 2, dodecyl 4,6-dideoxy-α/β-D-xylo-hexopyranoside] | 53.4 ± 5.35 | 54.8 ± 0.61 | 17.4 | 84.1 ± 2.87 | 84.2 ± 2.59 | 82 ± 2.9 | 26.6 |  | 58.09 ± 0.33 | 58.8 ± 2.66 | 80.7 ± 6.08 |  | 84.5 ± 1.52 | 84.2 | 56.4 ± 3.9 | IC50 ([1]; Homo sapiens, Caco-2, 72 h, Colistin 0.125 μg/mL): 55.7 ± 0.52 µM |
| CCCCCCCCCCCCO[C@H]1C[C@H](O)[C@@H](O)[C@H](C)O1 [Compound 3, dodecyl 2,6-dideoxy-α-L-arabino-hexopyranoside] | 68.2 ± 2.12 | 68.9 ± 2.21 | 21.8 | 79.3 ± 2 | 72.5 ± 2.51 | 75.1 ± 2.7 | 22.9 | selectively interact with phosphatidylethanolamine (PE); also recorded: Confirmed PE binder | 69.2 ± 1.25 |  |  |  |  |  |  | MIC [4]: 256 µg/mL (≈ 809 µM); MIC [5]: 4 µg/mL (≈ 12.6 µM); MIC [6]: 16 µg/mL (≈ 50.6 µM) |
| CCCCCCCCCCCCO[C@H]1O[C@H](C)C[C@H](O)[C@H]1O [Compound 1, dodecyl 4,6-dideoxy-α/β-D-xylo-hexopyranoside] | 52.5 ± 2.28 | 54.2 ± 2.77 | 17.2 | 65.9 ± 3.75 | 65.8 ± 1.28 | 67.7 ± 1.22 | 20.8 |  | 54.7 ± 1.04 | 50.5 ± 0.15 | 69.4 ± 2.58 | 64.6 ± 0.87 | 65.32 ± 0.4 | 65.8 | 52.2 ± 1.77 | IC50 ([1]; No polymyxin, 72 h): 54.3 µM |
